Measured values taken from patent publication US4007167A, “Antibiotic BM123 and production thereof” (American Cyanamid Company, priority 1975, dated 1977).
In brackets after ≈: the same amount, converted by molar mass.

Assays:
Klebsiella pneumoniae AD [1] = test: in vitro MIC, standard agar dilution procedure; type: cell-based
[2] = test system: Salmonella gallinarum 605; test: in vitro MIC, standard agar dilution procedure; type: cell-based
[3] = test system: Proteus morganii ATCC 8019; test: in vitro MIC, standard agar dilution procedure; type: cell-based
[4] = test system: Bacillus subtilis No. 17 Stansly R-78; test: in vitro MIC, standard agar dilution procedure; type: cell-based
[5] = test system: Pseudomonas aeruginosa ATCC 10145; test: in vitro MIC, standard agar dilution procedure; type: cell-based
[6] = test system: Staphylococcus aureus Rose ATCC 14154; test: in vitro MIC, standard agar dilution procedure; type: cell-based
Shigella shiga = test: microbe, parasite or virus in culture; type: cell-based; settings: for Minimal Inhibitory Concentration: Shigella shiga, agar dilution
[7] = test system: Streptococcus faecalis GK; test: in vitro MIC, standard agar dilution procedure; type: cell-based
[8] = test system: Enterobacter aerogenes 75; test: in vitro MIC, standard agar dilution procedure; type: cell-based
[9] = test system: Corynebacterium xerosis NRRL B-1397; test: in vitro MIC, standard agar dilution procedure; type: cell-based
[10] = test system: Bacillus cereus ATCC 9634; test: in vitro MIC, standard agar dilution procedure; type: cell-based
[11] = test system: Staphylococcus aureus 4050B122-3; test: in vitro MIC, standard agar dilution procedure; type: cell-based
[12] = test system: Salmonella typhosa ATCC 6539; test: in vitro MIC, standard agar dilution procedure; type: cell-based; settings: for Minimal Inhibitory Concentration: Salmonella typhosa ATCC 6539, agar dilution
Escherichia coli U-311 = test: in vitro MIC, standard agar dilution procedure; type: cell-based
[13] = test system: Staphylococcus aureus Smith ATCC 13709; test: in vitro MIC, standard agar dilution procedure; type: cell-based
[14] = test system: Proteus mirabilis ATCC 4671; test: in vitro MIC, standard agar dilution procedure; type: cell-based
[15] = test system: Proteus vulgaris ATCC 9484; test: in vitro MIC, standard agar dilution procedure; type: cell-based
Sarcina lutea ATCC 9341 = test: in vitro MIC, standard agar dilution procedure; type: cell-based
[16] = test system: Pseudomonas aeruginosa 1A7; test: in vitro MIC, standard agar dilution procedure; type: cell-based
Escherichia coli No. 29 = test: in vitro MIC, standard agar dilution procedure; type: cell-based
[17] = test system: Mycobacterium smegmatis ATCC 607; test: in vitro MIC, standard agar dilution procedure; type: cell-based
[18] = test system: Bacillus subtilis No. 18 Stansly R-76; test: in vitro MIC, standard agar dilution procedure; type: cell-based
[19] = test system: Proteus mirabilis ATCC 4671; test: control of systemic lethal infection in mice, single subcutaneous dose; type: in vivo, mice (Carworth Farms CF-1)
Method: (§1) These new substances show high in vivo antibacterial activity in mice against Proteus mirabilis ATCC 4671, Klebsiella pneumoniae AD, and Escherichia coli US311 when administered by a single subcutaneous dose to groups of Carworth Farms CF-1 mice, weight about 20 gm., infected intraperitoneally with a lethal dose of these bacteria in 10^-^1.6 , 10^-^4 and 10^-^3 trypticase soy broth TSP dilutions, respectively, of a 5 hour TSP blood culture.
(§2) Table VII, below, illustrates the in vivo antibacterial activity of BM123α, BM123β, and BM123γ against these three bacteria.

Escherichia coli US311 = test: as above; type: in vivo, mice (Carworth Farms CF-1)
Method: as §1, §2

Klebsiella pneumoniae AD [20] = test: as above; type: in vivo, mice (Carworth Farms CF-1)
Method: as §1, §2

Bacillus globigii = test: in vitro MIC, standard agar dilution procedure; type: cell-based
a variety of organisms = test: in vivo antibacterial activity (general statement); settings: in words
[21] = read-out: Minimal Inhibitory Concentration
[22] = Salmonella enterica, read-out: Minimal Inhibitory Concentration
[23] = single subcutaneous dose 32 mg./kg.
[24] = single subcutaneous dose 128 mg./kg.
[25] = single subcutaneous dose 512 mg./kg.

CC1OC(Oc2ccc(/C=C/C(=O)NCCCNCCCCN)cc2)C(NC(=N)N)C(O)C1NC(=O)NC1OCC(OC2OCC3OC(=O)NC3C2NC(N)=O)C(O)C1NC(N)=O (single isomer, unassigned) [BM123γ2]
MIC (Klebsiella pneumoniae AD [1]; [21]): 0.05 µg/mL (≈ 0.0559 µM)
MIC [2, 22]: 0.1 µg/mL (≈ 0.112 µM)
MIC ([3]; Morganella morganii, ATCC8019, read-out: Minimal Inhibitory Concentration): 0.1 µg/mL (≈ 0.112 µM)
MIC [4, 21]: 0.1 µg/mL (≈ 0.112 µM)
MIC ([5]; ATCC10145, read-out: Minimal Inhibitory Concentration): 5 µg/mL (≈ 5.59 µM)
MIC ([6]; ATCC14154, read-out: Minimal Inhibitory Concentration): 0.25 µg/mL (≈ 0.28 µM)
MIC (Shigella shiga; Shigella, read-out: Minimal Inhibitory Concentration): 0.25 µg/mL (≈ 0.28 µM)
MIC ([7]; Enterococcus faecalis, read-out: Minimal Inhibitory Concentration): 2.5 µg/mL (≈ 2.8 µM)
MIC ([8]; Klebsiella aerogenes, read-out: Minimal Inhibitory Concentration): 0.1 µg/mL (≈ 0.112 µM)
MIC ([9]; NRRLB1397, read-out: Minimal Inhibitory Concentration): 0.25 µg/mL (≈ 0.28 µM)
MIC ([10]; ATCC9634, read-out: Minimal Inhibitory Concentration): 0.5 µg/mL (≈ 0.559 µM)
MIC ([11]; 4050B1223, read-out: Minimal Inhibitory Concentration): 0.5 µg/mL (≈ 0.559 µM)
MIC [12, 22]: 0.05 µg/mL (≈ 0.0559 µM)
MIC (Escherichia coli U-311; U311, read-out: Minimal Inhibitory Concentration): 0.1 µg/mL (≈ 0.112 µM)
MIC ([13]; ATCC13709, read-out: Minimal Inhibitory Concentration): 0.25 µg/mL (≈ 0.28 µM)
MIC ([14]; ATCC4671, read-out: Minimal Inhibitory Concentration): 0.25 µg/mL (≈ 0.28 µM)
MIC ([15]; ATCC9484, read-out: Minimal Inhibitory Concentration): 0.1 µg/mL (≈ 0.112 µM)
MIC (Sarcina lutea ATCC 9341; Micrococcus luteus, ATCC9341, read-out: Minimal Inhibitory Concentration): 1 µg/mL (≈ 1.12 µM)
MIC [16, 21]: 10 µg/mL (≈ 11.2 µM)
MIC (Escherichia coli No. 29; [21]): 0.1 µg/mL (≈ 0.112 µM)
MIC ([17]; Mycolicibacterium smegmatis, ATCC607, read-out: Minimal Inhibitory Concentration): 0.25 µg/mL (≈ 0.28 µM)
MIC [18, 21]: 0.25 µg/mL (≈ 0.28 µM)

N=C(N)NCCCC(N)C(=O)NC1C(OC2C(CO)OC(OC3C(O)C(NC(=O)C4CCC(=N)N4)C(O)C(O)C3OC(N)=O)C(O)C2O)OC(CO)C(O)C1O (stereo not drawn) [BM123α]
Minimal Inhibitory Concentration (Klebsiella pneumoniae AD [1]): 5 µg/mL
Minimal Inhibitory Concentration [2]: 5 µg/mL
Minimal Inhibitory Concentration [3]: 5 µg/mL
Minimal Inhibitory Concentration [4]: 10 µg/mL
Minimal Inhibitory Concentration [5]: 200 µg/mL
Minimal Inhibitory Concentration [6]: 100 µg/mL
Minimal Inhibitory Concentration (Shigella shiga): 50 µg/mL
Minimal Inhibitory Concentration [7]: > 200 µg/mL
Minimal Inhibitory Concentration [8]: 10 µg/mL
Alive/Total Mice Tested, 7 Days After Infection ([19]; single subcutaneous dose 8 mg./kg.): 0/5
Alive/Total Mice Tested, 7 Days After Infection [19, 23]: 2/5
Alive/Total Mice Tested, 7 Days After Infection [19, 24]: 3/5
Alive/Total Mice Tested, 7 Days After Infection [19, 25]: 5/5
Alive/Total Mice Tested, 7 Days After Infection (Escherichia coli US311; [23]): 1/5
Alive/Total Mice Tested, 7 Days After Infection (Escherichia coli US311; [24]): 5/5
Alive/Total Mice Tested, 7 Days After Infection (Escherichia coli US311; [25]): 5/5
Alive/Total Mice Tested, 7 Days After Infection (Klebsiella pneumoniae AD [20]; [23]): 0/5
Alive/Total Mice Tested, 7 Days After Infection (Klebsiella pneumoniae AD [20]; [24]): 0/5
Alive/Total Mice Tested, 7 Days After Infection (Klebsiella pneumoniae AD [20]; [25]): 4/5
Minimal Inhibitory Concentration [9]: 10 µg/mL
Minimal Inhibitory Concentration [10]: 100 µg/mL
Minimal Inhibitory Concentration [11]: 100 µg/mL
Minimal Inhibitory Concentration [12]: 5 µg/mL
Minimal Inhibitory Concentration (Escherichia coli U-311): 5 µg/mL
Minimal Inhibitory Concentration [13]: 20 µg/mL
Minimal Inhibitory Concentration [14]: 50 µg/mL
Minimal Inhibitory Concentration [15]: 5 µg/mL
Minimal Inhibitory Concentration (Sarcina lutea ATCC 9341): 50 µg/mL
Minimal Inhibitory Concentration [16]: > 200 µg/mL
Minimal Inhibitory Concentration (Bacillus globigii): 10 µg/mL
Minimal Inhibitory Concentration (Escherichia coli No. 29): 5 µg/mL
Minimal Inhibitory Concentration [17]: 5 µg/mL
in vivo activity against a variety of organisms (a variety of organisms): active in vivo
Minimal Inhibitory Concentration [18]: 20 µg/mL

Gentamicin sulfate [reference compound]
Minimal Inhibitory Concentration (Klebsiella pneumoniae AD [1]): 0.05 µg/mL
Minimal Inhibitory Concentration [2]: 0.05 µg/mL
Minimal Inhibitory Concentration [3]: 0.1 µg/mL
Minimal Inhibitory Concentration [4]: 0.025 µg/mL
Minimal Inhibitory Concentration [5]: 2.5 µg/mL
Minimal Inhibitory Concentration [6]: 0.1 µg/mL
Minimal Inhibitory Concentration (Shigella shiga): 0.25 µg/mL
Minimal Inhibitory Concentration [7]: 2.5 µg/mL
Minimal Inhibitory Concentration [8]: 0.1 µg/mL
Minimal Inhibitory Concentration [9]: 0.025 µg/mL
Minimal Inhibitory Concentration [10]: 0.25 µg/mL
Minimal Inhibitory Concentration [11]: 0.25 µg/mL
Minimal Inhibitory Concentration [12]: 0.1 µg/mL
Minimal Inhibitory Concentration (Escherichia coli U-311): 0.05 µg/mL
Minimal Inhibitory Concentration [13]: 0.05 µg/mL
Minimal Inhibitory Concentration [14]: 0.25 µg/mL
Minimal Inhibitory Concentration [15]: 0.1 µg/mL
Minimal Inhibitory Concentration (Sarcina lutea ATCC 9341): 0.25 µg/mL
Minimal Inhibitory Concentration [16]: 5 µg/mL
Minimal Inhibitory Concentration (Bacillus globigii): 0.025 µg/mL
Minimal Inhibitory Concentration (Escherichia coli No. 29): 0.05 µg/mL
Minimal Inhibitory Concentration [17]: 0.1 µg/mL
Minimal Inhibitory Concentration [18]: 0.1 µg/mL
